Data on 3 compounds can be found in PubChem BioAssay AID588659 (The Scripps Research Institute Molecular Screening Center, 2011).

Assay [1] addresses Mitogen-activated protein kinase 14 (Homo sapiens) (UniProt Q16539). Briefly: total p38 protein level change, either direction, late-stage follow-up, counter-screen for KLF5 inhibitor project, HT29 cells, chemiluminescent western blot, powder samples (AID 588659). Particulars: HT29 cells, p38 western blot, 24 h; at 10 µM; stronger effect = higher value.
Assay [2] concerns HT29 cells, p38 western blot, 24 h. The assay is described as above. The note with it: measured here: p38 band fold change vs DMSO; at 10 µM.

Activity calls are given as the source filed them.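 The calls were made as follows: active = change in p38 protein level versus solvent-only treated cells of at least 30%, down or up; inactive = change under 30% either way.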

Sequence of Mitogen-activated protein kinase 14 (Homo sapiens) (Q16539 whole entry, looked up): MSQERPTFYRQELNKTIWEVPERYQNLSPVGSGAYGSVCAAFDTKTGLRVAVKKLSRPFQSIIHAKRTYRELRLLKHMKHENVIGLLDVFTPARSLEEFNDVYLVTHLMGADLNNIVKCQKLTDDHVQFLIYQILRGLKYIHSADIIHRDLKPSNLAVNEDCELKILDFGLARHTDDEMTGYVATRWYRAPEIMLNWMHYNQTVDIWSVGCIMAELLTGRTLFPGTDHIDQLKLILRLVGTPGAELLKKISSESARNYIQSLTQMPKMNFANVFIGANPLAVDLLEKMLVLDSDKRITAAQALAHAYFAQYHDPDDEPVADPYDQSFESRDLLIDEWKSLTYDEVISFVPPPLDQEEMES

As for `CN(C(=O)CNC(=O)/C=C/c1cccc(Cl)c1)C1CCS(=O)(=O)CC1`, the inhibition in assay [1] is 10.2% (inactive).
As for `CN(C(=O)COC(=O)/C=C/c1cccc([N+](=O)[O-])c1)C1CCS(=O)(=O)C1` (centres undefined), the inhibition in assay [1] is 14.3% (inactive).
The compound `CN(C(=O)CNC(=O)/C=C/c1cccc(Cl)c1)C1CCS(=O)(=O)C1` (centres undefined) gave a fold change in assay [2] of 1.02. In addition, in assay [1], the inhibition was -2.37% (inactive).

The term inhibition denotes the change of the read-out against control, counted positive when it falls.
